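Method: 48-hour compound exposure of cells in 96-well plates, five concentrations, linear interpolation of endpoints. GI50: concentration for 50% inhibition of growth. TGI is the concentration that stops growth completely.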
Key:
Test in all cases: NCI anticancer screen, dose series, 48 h
SN12C renal = system: SN12C renal
NCI-H522 lung = system: NCI-H522 lung
PC-3 prostate = system: PC-3 prostate
NCI-H23 lung = system: NCI-H23 lung
HCT-116 colon = system: HCT-116 colon
OVCAR-3 ovarian = system: OVCAR-3 ovarian
UACC-257 melanoma = system: UACC-257 melanoma
A498 renal = system: A498 renal
LOX IMVI melanoma = system: LOX IMVI melanoma
MALME-3M melanoma = system: MALME-3M melanoma
NCI-H226 lung = system: NCI-H226 lung
SNB-19 CNS = system: SNB-19 CNS
IGROV1 ovarian = system: IGROV1 ovarian
MOLT-4 leukemia = system: MOLT-4 leukemia
U251 CNS = system: U251 CNS
T-47D breast = system: T-47D breast
SNB-75 CNS = system: SNB-75 CNS
M14 melanoma = system: M14 melanoma
786-0 renal = system: 786-0 renal
SF-295 CNS = system: SF-295 CNS
A549 NSCLC = system: A549 NSCLC
DU-145 prostate = system: DU-145 prostate
SK-MEL-5 melanoma = system: SK-MEL-5 melanoma
HOP-62 NSCLC = system: HOP-62 NSCLC
K-562 leukemia = system: K-562 leukemia
CCRF-CEM leukemia = system: CCRF-CEM leukemia
HOP-92 NSCLC = system: HOP-92 NSCLC
MDA-MB-435 = system: MDA-MB-435
SF-268 CNS = system: SF-268 CNS
SF-539 CNS = system: SF-539 CNS
NCI/ADR-RES ovarian = system: NCI/ADR-RES ovarian
UACC-62 melanoma = system: UACC-62 melanoma
RXF 393 renal = system: RXF 393 renal
HCT-15 colon = system: HCT-15 colon
TK-10 renal = system: TK-10 renal
OVCAR-8 ovarian = system: OVCAR-8 ovarian
SK-MEL-28 melanoma = system: SK-MEL-28 melanoma
HL-60(TB) leukemia = system: HL-60(TB) leukemia
SW-620 colon = system: SW-620 colon
OVCAR-4 ovarian = system: OVCAR-4 ovarian
SK-OV-3 ovarian = system: SK-OV-3 ovarian
NCI-H460 lung = system: NCI-H460 lung
OVCAR-5 ovarian = system: OVCAR-5 ovarian
ACHN renal = system: ACHN renal
SR leukemia = system: SR leukemia
KM12 colon = system: KM12 colon
MDA-MB-231 breast = system: MDA-MB-231 breast
RPMI-8226 leukemia = system: RPMI-8226 leukemia
CAKI-1 renal = system: CAKI-1 renal
EKVX NSCLC = system: EKVX NSCLC
UO-31 renal = system: UO-31 renal
HCC-2998 colon = system: HCC-2998 colon
SK-MEL-2 melanoma = system: SK-MEL-2 melanoma
COLO 205 colon = system: COLO 205 colon
BT-549 breast = system: BT-549 breast
MCF7 breast = system: MCF7 breast
HS 578T breast = system: HS 578T breast
HT29 colon = system: HT29 colon

Work on NC(=O)c1cccc(N2Cc3ccccc3OC3=C2C(=O)c2c(O)ccc(O)c2C3=O)c1 yielded a GI50 (SN12C renal) of 1440 nM, a TGI (SN12C renal) of 3400 nM and a GI50 (NCI-H522 lung) of 68.2 nM. For the same molecule, the TGI (NCI-H522 lung) was 256 nM, the GI50 (PC-3 prostate) was 1280 nM and the TGI (PC-3 prostate) was 4560 nM. The GI50 (NCI-H23 lung) was 1590 nM, the TGI (NCI-H23 lung) was 4500 nM and the GI50 (HCT-116 colon) was 267 nM. For the same molecule, the TGI (HCT-116 colon) was 963 nM, the GI50 (OVCAR-3 ovarian) was 233 nM and the TGI (OVCAR-3 ovarian) was 646 nM. For the same molecule, the GI50 (UACC-257 melanoma) was 531 nM, the TGI (UACC-257 melanoma) was 1730 nM and the GI50 (A498 renal) was 2640 nM. The TGI (A498 renal) was 7210 nM, the GI50 (LOX IMVI melanoma) was 284 nM and the TGI (LOX IMVI melanoma) was 897 nM. For the same molecule, the GI50 (MALME-3M melanoma) was 194 nM, the TGI (MALME-3M melanoma) was 614 nM and the GI50 (NCI-H226 lung) was 2040 nM. It also gave a TGI (NCI-H226 lung) of 5950 nM, a GI50 (SNB-19 CNS) of 3000 nM and a TGI (SNB-19 CNS) of 10800 nM. The GI50 (IGROV1 ovarian) was 1190 nM, the TGI (IGROV1 ovarian) was 3010 nM and the GI50 (MOLT-4 leukemia) was 235 nM. For the same molecule, the TGI (MOLT-4 leukemia) was 1090 nM, the GI50 (U251 CNS) was 1510 nM and the TGI (U251 CNS) was 4590 nM. For the same molecule, the GI50 (T-47D breast) was 213 nM, the TGI (T-47D breast) was 746 nM and the GI50 (SNB-75 CNS) was 1490 nM. It also gave a TGI (SNB-75 CNS) of 6670 nM, a GI50 (M14 melanoma) of 554 nM and a TGI (M14 melanoma) of 1970 nM. For the same molecule, the GI50 (786-0 renal) was 276 nM, the TGI (786-0 renal) was 986 nM and the GI50 (SF-295 CNS) was 2210 nM. The TGI (SF-295 CNS) was 5990 nM, the GI50 (A549 NSCLC) was 2830 nM and the TGI (A549 NSCLC) was 10100 nM. The GI50 (DU-145 prostate) was 517 nM, the TGI (DU-145 prostate) was 1640 nM and the GI50 (SK-MEL-5 melanoma) was 1760 nM. For the same molecule, the TGI (SK-MEL-5 melanoma) was 3840 nM, the GI50 (HOP-62 NSCLC) was 2140 nM and the TGI (HOP-62 NSCLC) was 5960 nM. For the same molecule, the GI50 (K-562 leukemia) was 164 nM, the TGI (K-562 leukemia) was 1330 nM and the GI50 (CCRF-CEM leukemia) was 120 nM. The TGI (CCRF-CEM leukemia) was 595 nM, the GI50 (HOP-92 NSCLC) was 270 nM and the TGI (HOP-92 NSCLC) was 752 nM. It also gave a GI50 (MDA-MB-435) of 1080 nM, a TGI (MDA-MB-435) of 2860 nM and a GI50 (SF-268 CNS) of 1340 nM. The TGI (SF-268 CNS) was 3910 nM, the GI50 (SF-539 CNS) was 1250 nM and the TGI (SF-539 CNS) was 2630 nM. It also gave a GI50 (NCI/ADR-RES ovarian) of 2130 nM, a TGI (NCI/ADR-RES ovarian) of 35600 nM and a GI50 (UACC-62 melanoma) of 319 nM. It also gave a TGI (UACC-62 melanoma) of 1140 nM, a GI50 (RXF 393 renal) of 189 nM and a TGI (RXF 393 renal) of 433 nM. The GI50 (HCT-15 colon) was 224 nM, the TGI (HCT-15 colon) was 724 nM and the GI50 (TK-10 renal) was 221 nM. For the same molecule, the TGI (TK-10 renal) was 682 nM, the GI50 (OVCAR-8 ovarian) was 304 nM and the TGI (OVCAR-8 ovarian) was 1500 nM. It also gave a GI50 (SK-MEL-28 melanoma) of 433 nM, a TGI (SK-MEL-28 melanoma) of 1500 nM and a GI50 (HL-60(TB) leukemia) of 188 nM. For the same molecule, the TGI (HL-60(TB) leukemia) was 496 nM, the GI50 (SW-620 colon) was 275 nM and the TGI (SW-620 colon) was 1030 nM. It also gave a GI50 (OVCAR-4 ovarian) of 312 nM, a TGI (OVCAR-4 ovarian) of 1130 nM and a GI50 (SK-OV-3 ovarian) of 3510 nM. The TGI (SK-OV-3 ovarian) was 13000 nM, the GI50 (NCI-H460 lung) was 2340 nM and the TGI (NCI-H460 lung) was 6120 nM. For the same molecule, the GI50 (OVCAR-5 ovarian) was 1280 nM, the TGI (OVCAR-5 ovarian) was 2870 nM and the GI50 (ACHN renal) was 165 nM. For the same molecule, the TGI (ACHN renal) was 485 nM, the GI50 (SR leukemia) was 88 nM and the TGI (SR leukemia) was 912 nM. The GI50 (KM12 colon) was 1880 nM, the TGI (KM12 colon) was 4880 nM and the GI50 (MDA-MB-231 breast) was 342 nM. The TGI (MDA-MB-231 breast) was 1040 nM, the GI50 (RPMI-8226 leukemia) was 319 nM and the TGI (RPMI-8226 leukemia) was 1360 nM. For the same molecule, the GI50 (CAKI-1 renal) was 301 nM, the TGI (CAKI-1 renal) was 1130 nM and the GI50 (EKVX NSCLC) was 1260 nM. The TGI (EKVX NSCLC) was 4090 nM, the GI50 (UO-31 renal) was 138 nM and the TGI (UO-31 renal) was 344 nM. For the same molecule, the GI50 (HCC-2998 colon) was 1960 nM, the TGI (HCC-2998 colon) was 3640 nM and the GI50 (SK-MEL-2 melanoma) was 1960 nM. The TGI (SK-MEL-2 melanoma) was 4790 nM, the GI50 (COLO 205 colon) was 112 nM and the TGI (COLO 205 colon) was 298 nM. For the same molecule, the GI50 (BT-549 breast) was 944 nM, the TGI (BT-549 breast) was 2410 nM and the GI50 (MCF7 breast) was 327 nM. The TGI (MCF7 breast) was 1730 nM, the GI50 (HS 578T breast) was 3280 nM and the TGI (HS 578T breast) was 30800 nM. For the same molecule, the GI50 (HT29 colon) was 302 nM and the TGI (HT29 colon) was 1150 nM.
With CC(=O)OCC1OC(n2c(-c3cccs3)c3c(c(C#N)c2=S)-c2ccccc2CC3)C(OC(C)=O)C(OC(C)=O)C1OC(C)=O (centres undefined) the TGI (SN12C renal) was > 100000 nM, the TGI (NCI-H522 lung) was 34000 nM and the TGI (PC-3 prostate) was > 65300 nM. The TGI (NCI-H23 lung) was > 56600 nM, the TGI (HCT-116 colon) was > 50400 nM and the TGI (OVCAR-3 ovarian) was 43100 nM. The TGI (UACC-257 melanoma) was > 55400 nM, the TGI (A498 renal) was 40900 nM and the TGI (LOX IMVI melanoma) was 22500 nM. The TGI (MALME-3M melanoma) was > 51800 nM, the TGI (NCI-H226 lung) was > 56700 nM and the TGI (SNB-19 CNS) was > 100000 nM. For the same molecule, the TGI (IGROV1 ovarian) was > 75100 nM, the TGI (MOLT-4 leukemia) was > 37700 nM and the TGI (U251 CNS) was > 53800 nM. For the same molecule, the TGI (T-47D breast) was 42800 nM, the TGI (SNB-75 CNS) was 26700 nM and the TGI (M14 melanoma) was > 50800 nM. For the same molecule, the TGI (786-0 renal) was 58500 nM, the TGI (SF-295 CNS) was > 55800 nM and the TGI (A549 NSCLC) was > 87100 nM. For the same molecule, the TGI (DU-145 prostate) was > 100000 nM, the TGI (SK-MEL-5 melanoma) was 23000 nM and the TGI (HOP-62 NSCLC) was > 65400 nM. For the same molecule, the TGI (K-562 leukemia) was > 100000 nM, the TGI (CCRF-CEM leukemia) was > 83600 nM and the TGI (HOP-92 NSCLC) was 29900 nM. For the same molecule, the TGI (MDA-MB-435) was 9090 nM, the TGI (SF-268 CNS) was > 64400 nM and the TGI (SF-539 CNS) was > 49300 nM. For the same molecule, the TGI (NCI/ADR-RES ovarian) was > 70800 nM, the TGI (UACC-62 melanoma) was 43100 nM and the TGI (RXF 393 renal) was 29300 nM. For the same molecule, the TGI (HCT-15 colon) was > 56800 nM, the TGI (TK-10 renal) was > 30200 nM and the TGI (OVCAR-8 ovarian) was > 46600 nM. The TGI (SK-MEL-28 melanoma) was > 59200 nM, the TGI (HL-60(TB) leukemia) was > 28100 nM and the TGI (SW-620 colon) was > 63400 nM. For the same molecule, the TGI (OVCAR-4 ovarian) was > 95700 nM, the TGI (SK-OV-3 ovarian) was > 100000 nM and the TGI (NCI-H460 lung) was > 45800 nM. The TGI (OVCAR-5 ovarian) was > 100000 nM, the TGI (ACHN renal) was > 64000 nM and the TGI (SR leukemia) was > 29800 nM. For the same molecule, the TGI (KM12 colon) was > 50200 nM, the TGI (MDA-MB-231 breast) was 87900 nM and the TGI (RPMI-8226 leukemia) was 17000 nM. The TGI (CAKI-1 renal) was 64700 nM, the TGI (EKVX NSCLC) was 70900 nM and the TGI (UO-31 renal) was 20600 nM. It also gave a TGI (HCC-2998 colon) of 33500 nM, a TGI (SK-MEL-2 melanoma) of 31500 nM and a TGI (COLO 205 colon) of 32900 nM. For the same molecule, the TGI (BT-549 breast) was > 55600 nM, the TGI (MCF7 breast) was 49200 nM and the TGI (HS 578T breast) was 70300 nM. It also gave a TGI (HT29 colon) of 27200 nM.

From PubChem BioAssay (NCI)
